Consider three molecules from patent US10786444B2, “PH dependent carriers for targeted release of pharmaceuticals along the gastrointestinal tract, compositions therefrom, and making and using same” (PLx Opco Inc., priority 2011, dated 2020).

This data set is described as follows: physchem. As for the experimental part: In this study, pure salicylic acid (SA) partitioning between cyclohexane and water versus salicylic acid partitioning between cyclohexane and water in SA Formulas A-D was investigated at pH 1 and at pH 7 simulating gastric fluids and duodenum fluids. The study was conducted by adding either SA, SA Formulas A-D into a cyclohexane/water partitioning system and measuring the differential partitioning of SA between the two phase as the value Log P.
In this study, pure naproxen (NAP) partitioning between cyclohexane and water versus NAP partitioning between cyclohexane and water in NAP Formulas A-D was investigated at pH 1 and at pH 7 simulating gastric fluids and duodenum fluids. The study was conducted by adding either NAP, NAP Formulas A-D into a cyclohexane/water partitioning system and measuring the differential partitioning of NAP between the two phase as the value Log P.
In this study, pure indomethacin (INDO) partitioning between cyclohexane and water versus INDO partitioning between cyclohexane and water in INDO Formulas A-D was investigated at pH 1 and at pH 7 simulating gastric fluids and duodenum fluids. The study was conducted by adding either INDO, INDO Formulas A-D into a cyclohexane/water partitioning system and measuring the differential partitioning of INDO between the two phase as the value Log P.
In this study, pure mefenamic acid (MFA) partitioning between cyclohexane and water versus MFA partitioning between cyclohexane and water in MFA Formulas A-D was investigated at pH 1 and at pH 7 simulating gastric fluids and duodenum fluids. The study was conducted by adding either MFA, MFA Formulas A-D into a cyclohexane/water partitioning system and measuring the differential partitioning of MFA between the two phase as the value Log P.

With `COc1ccc2c(c1)c(CC(=O)O)c(C)n2C(=O)c1ccc(Cl)cc1` [INDO, indomethacin], the logD hydrocarbon water is 1.05 (pH 1) and -1.81 (pH 7).

Take `Cc1cccc(Nc2ccccc2C(=O)O)c1C` [MFA, mefenamic acid]: the logD hydrocarbon water reads like this: (pH 1) 0; (pH 7) 0.47.

Turning to `O=C(O)c1ccccc1O` [SA, salicylic acid], the logD hydrocarbon water was -1.11 (pH 1) and 0 (pH 7).
